Data taken from US9409952B2, “Peptide-compound cyclization method” (Chugai Seiyaku Kabushiki Kaisha, priority 2011, dated 2016).
Like-named read-outs stand apart in the source and are kept apart here. Starred links: 1 amine or outer side, 2 acyl side, 3 side chain; linkers in the order of their positions; H or OH if unused. Positions of bridges follow the written chain, without caps; N, C: chain ends. Non-standard residues stand in square brackets, D forms with d. Residues, ends and D or L forms follow the SMILES beside them. *: point of attachment. Phe(4-CF3) = N[C@@H](Cc1ccc(C(F)(F)F)cc1)C(=O)O; NMePhe(3-Cl) = CN[C@@H](Cc1cccc(Cl)c1)C(=O)O; NMeF = CN[C@@H](Cc1ccccc1)C(=O)O; NMeGABA = CN(CCCC(=O)[*:2])[*:1]; NMeI = CC[C@H](C)[C@H](NC)C(=O)O; NMeβAla = CN(CCC(=O)[*:2])[*:1]; NMeL = CN[C@@H](CC(C)C)C(=O)O; NMeV = CN[C@H](C(=O)O)C(C)C; NMeA = CN[C@@H](C)C(=O)O; Piperidide = C1CCN(*)CC1; dNMeA = CN[C@H](C)C(=O)O; β3hA = C[C@H](N)CC(=O)O; NPrGly = CCCNCC(=O)O; Sar = CNCC(=O)O; tBu = CC(C)(C)*

Columns and labels:
[1] = Metabolic stability in human hepatic microsome; assay type: in vitro ADME; settings: microsomes
[2] = PAMPA (parallel artificial membrane permeability assay); assay type: in vitro ADME; settings: PAMPA
Outline: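 Artificial membrane was 10% (w/v) egg lecithin plus 0.5% (w/v) cholesterol in dodecane on a PVDF filter. A 10 mM DMSO stock was added at 0.5% (v/v) to donor buffer (50 mM MOPSO, pH 6.5, 5.0% glycocholic acid). After 18 h at 37 °C, LC/MS or LC/UV gave donor and acceptor levels for Pe.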

[3] = pH 7.4, human hepatic microsome, NADPH(+), read-out: CL NADPH(+)
[4] = membrane permeation rate (Pe), 50 mM MOPSO buffer pH 6.5 with 5.0% glycocholic acid, 37° C., 18 hours, read-out: iPAMPA Pe

CC(C)C[C@H]1C(=O)N[C@@H]([C@@H](C)O)C(=O)N(C)[C@@H](C)C(=O)N(C)[C@@H](CC(C)C)C(=O)N[C@@H](C(C)C)C(=O)N[C@H](C(=O)N(C)[C@@H](Cc2ccccc2)C(=O)N(C)[C@@H](Cc2ccccc2)C(=O)N[C@@H](C)C(=O)N2CCCCC2)CC(=O)N(C)[C@@H](C)C(=O)N(C)[C@@H](Cc2ccccc2)C(=O)N(C)CC(=O)N1C [DP-405] ([NMeA][NMeF][Sar][NMeL]T[NMeA][NMeL]VD[NMeF][NMeF]A-Piperidide; lactam N-9)
microsomal CLint at 1 uM [1, 3]: 83 µL/min/mg
Papp at 18 hours, 50 µM [2, 4]: 26 ×10⁻⁶ cm/s

CC[C@H](C)[C@H]1C(=O)N[C@H](C(=O)N2CCCCC2)CC(=O)N[C@H](C)C(=O)N[C@@H]([C@@H](C)O)C(=O)N(C)[C@@H](Cc2ccccc2)C(=O)N[C@@H](CC(C)C)C(=O)N(C)[C@@H](C)C(=O)N[C@@H](C(C)C)C(=O)N[C@@H](Cc2ccccc2)C(=O)N(C)[C@@H](CC(C)C)C(=O)N[C@@H](CC(C)C)C(=O)NCC(=O)N1C [DP-53] ([dA]T[NMeF]L[NMeA]VF[NMeL]LG[NMeI]D-Piperidide; lactam N-12)
microsomal CLint at 1 uM ([1]; human, pH 7.4, CL NADPH(+)): 60 µL/min/mg
Papp at 18 hours, 50 µM ([2]; pH 6.5): 30 ×10⁻⁶ cm/s

CC(C)C[C@H]1C(=O)N[C@@H](C(C)C)C(=O)N[C@H](C(=O)N(C)[C@@H](Cc2ccccc2)C(=O)N[C@@H](C)C(=O)N2CCCCC2)CC(=O)N[C@H](C(C)C)C(=O)N(C)[C@@H](Cc2ccccc2)C(=O)N(C)[C@@H](C)C(=O)N(C)[C@@H](CC(C)C)C(=O)N[C@@H]([C@@H](C)O)C(=O)N(C)CC(=O)N1C [DP-198] ([dV][NMeF][NMeA][NMeL]T[Sar][NMeL]VD[NMeF]A-Piperidide; lactam N-9)
microsomal CLint at 1 uM [1, 3]: 34 µL/min/mg
Papp at 18 hours, 50 µM [2, 4]: 36 ×10⁻⁶ cm/s

CC(C)C[C@@H]1NC(=O)CCN(C)C(=O)C[C@@H](C(=O)N2CCCCC2)NC(=O)[C@H](Cc2ccccc2)N(C)C(=O)CNC(=O)[C@H]([C@@H](C)O)NC(=O)[C@H](Cc2ccccc2)NC(=O)[C@H](CC(C)C)N(C)C(=O)[C@H](CC(C)C)NC(=O)[C@H](Cc2ccccc2)NC1=O [DP-117] ([NMeβAla]LFL[NMeL]FTG[NMeF]D-Piperidide; lactam N-10)
microsomal CLint at 1 uM [1, 3]: 194 µL/min/mg
Papp at 18 hours, 50 µM [2, 4]: 25 ×10⁻⁶ cm/s

CC(C)C[C@H]1C(=O)N[C@H](C(=O)N2CCCCC2)CC(=O)N(C)[C@@H](C)C(=O)N(C)[C@@H](Cc2ccccc2)C(=O)N(C)[C@@H](CC(C)C)C(=O)N[C@@H]([C@@H](C)O)C(=O)N(C)[C@@H](C)C(=O)N1C [DP-678] ([NMeA][NMeF][NMeL]T[NMeA][NMeL]D-Piperidide; lactam N-7)
microsomal CLint at 1 uM [1, 3]: 284 µL/min/mg
Papp at 18 hours, 50 µM [2, 4]: 26 ×10⁻⁶ cm/s

CC(C)C[C@@H]1NC(=O)[C@H](Cc2ccccc2)N(C)C(=O)[C@H](CC(C)C)N(C)C(=O)CCN(C)C(=O)C[C@@H](C(=O)N2CCCCC2)NC(=O)[C@H](CC(C)C)N(C)C(=O)[C@H](Cc2ccccc2)N(C)C(=O)[C@H]([C@@H](C)O)NC(=O)[C@H](Cc2ccccc2)N(C)C1=O [DP-126] ([NMeβAla][NMeL][NMeF]L[NMeF]T[NMeF][NMeL]D-Piperidide; lactam N-9)
microsomal CLint at 1 uM [1, 3]: 239 µL/min/mg
Papp at 18 hours, 50 µM [2, 4]: 54 ×10⁻⁶ cm/s

CC[C@H](C)[C@H](NC(=O)[C@@H](NC(=O)[C@H](CC(C)C)N(C)C(=O)[C@@H](NC(=O)[C@@H]1CC(=O)N(C)[C@@H](C)C(=O)N[C@@H](CC(C)C)C(=O)N(C)[C@@H](Cc2ccccc2)C(=O)N[C@@H](CC(C)C)C(=O)N(C)CC(=O)N(C)[C@@H](CC(C)C)C(=O)N[C@@H]([C@@H](C)CC)C(=O)N(C)[C@@H](CC(C)C)C(=O)N1)[C@@H](C)O)C(C)C)C(=O)N1CCCCC1 [DP-940] ([NMeA]L[NMeF]L[Sar][NMeL]I[NMeL]DT[NMeL]VI-Piperidide; lactam N-9)
microsomal CLint at 1 uM [1, 3]: 37 µL/min/mg
Papp at 18 hours, 50 µM [2, 4]: 0.14 ×10⁻⁶ cm/s

CC(C)C[C@H]1C(=O)N[C@@H](Cc2ccccc2)C(=O)N[C@H](C(=O)N(C)[C@@H](Cc2ccccc2)C(=O)N[C@@H](C)C(=O)N2CCCCC2)CC(=O)N(C)[C@@H](C)C(=O)N[C@@H]([C@@H](C)O)C(=O)N(C)[C@@H](C)C(=O)N[C@@H](C(C)C)C(=O)N(C)CC(=O)N(C)[C@@H](Cc2ccccc2)C(=O)N1C [DP-311] ([NMeA]T[NMeA]V[Sar][NMeF][NMeL]FD[NMeF]A-Piperidide; lactam N-9)
microsomal CLint at 1 uM ([1]; human, pH 7.4, CL NADPH(+)): 74 µL/min/mg
Papp at 18 hours, 50 µM ([2]; pH 6.5): 48 ×10⁻⁶ cm/s

CC(C)C[C@H]1C(=O)N[C@@H]([C@@H](C)O)C(=O)N(C)[C@@H](C)C(=O)N[C@H](C(=O)N2CCCCC2)CC(=O)N[C@H](C)C(=O)N(C)[C@@H](C)C(=O)N(C)[C@@H](Cc2ccccc2)C(=O)N1C [DP-538] ([dA][NMeA][NMeF][NMeL]T[NMeA]D-Piperidide; lactam N-7)
microsomal CLint at 1 uM [1, 3]: 37 µL/min/mg
Papp at 18 hours, 50 µM [2, 4]: 5.5 ×10⁻⁶ cm/s

CC(C)C[C@@H]1NC(=O)[C@H](Cc2ccccc2)N(C)C(=O)[C@H](C)N(C)C(=O)C[C@H](C)NC(=O)[C@H]([C@@H](C)O)NC(=O)[C@H](CC(C)C)N(C)C(=O)[C@H](Cc2ccccc2)NC(=O)[C@H](CC(C)C)N(C)C(=O)[C@H](CC(C)C)N(C)C1=O [DP-791] (cyclo(F[NMeL]T[β3hA][NMeA][NMeF]L[NMeL][NMeL]))
microsomal CLint at 1 uM [1, 3]: 794 µL/min/mg
Papp at 18 hours, 50 µM [2, 4]: 41 ×10⁻⁶ cm/s

CC(C)C[C@H]1C(=O)N[C@@H](Cc2ccccc2)C(=O)N[C@@H](COC(C)(C)C)C(=O)N(C)[C@@H](CC(C)C)C(=O)N(C)[C@@H](CC(C)C)C(=O)N[C@@H]([C@@H](C)O)C(=O)N[C@H](C(=O)N2CCCCC2)CC(=O)N(C)CCC(=O)N(C)[C@@H](Cc2ccccc2)C(=O)NCC(=O)N1C [DP-426] ([NMeβAla][NMeF]G[NMeL]FS(tBu)[NMeL][NMeL]TD-Piperidide; lactam N-10)
microsomal CLint at 1 uM [1, 3]: 546 µL/min/mg
Papp at 18 hours, 50 µM [2, 4]: 36 ×10⁻⁶ cm/s

CC(C)C[C@@H]1NC(=O)[C@@H](C(C)C)NC(=O)C[C@H](C)NC(=O)[C@H](CC(C)C)N(C)C(=O)[C@H](CC(C)C)N(C)C(=O)[C@H](Cc2ccc(C(F)(F)F)cc2)NC(=O)[C@H](C)N(C)C(=O)[C@H]([C@@H](C)O)NC1=O [DP-825] (cyclo(LT[NMeA][Phe(4-CF3)][NMeL][NMeL][β3hA][dV]))
microsomal CLint at 1 uM [1, 3]: 168 µL/min/mg
Papp at 18 hours, 50 µM [2, 4]: 39 ×10⁻⁶ cm/s

CC[C@H](C)[C@H]1C(=O)N[C@H](C(=O)N2CCCCC2)CC(=O)N(C)[C@H](C)C(=O)N[C@@H](Cc2ccccc2)C(=O)N(C)[C@@H](C)C(=O)N(C)[C@@H](CC(C)C)C(=O)N[C@@H]([C@@H](C)O)C(=O)N(C)CC(=O)N(C)[C@@H](C(C)C)C(=O)N[C@@H](C)C(=O)N1C [DP-142] ([dNMeA]F[NMeA][NMeL]T[Sar][NMeV]A[NMeI]D-Piperidide; lactam N-10)
microsomal CLint at 1 uM ([1]; human, pH 7.4, CL NADPH(+)): 22 µL/min/mg
Papp at 18 hours, 50 µM ([2]; pH 6.5): 4 ×10⁻⁶ cm/s

CC(C)C[C@H]1C(=O)NCC(=O)N(C)[C@@H](Cc2ccccc2)C(=O)N(C)[C@@H](Cc2ccccc2)C(=O)N[C@@H]([C@@H](C)O)C(=O)N(C)[C@@H](C)C(=O)N[C@H](C(=O)N(C)[C@@H](Cc2ccccc2)C(=O)N(C)[C@@H](Cc2ccccc2)C(=O)N[C@@H](C)C(=O)N2CCCCC2)CC(=O)N(C)CCCC(=O)N[C@@H](C(C)C)C(=O)N1C [DP-402] ([NMeGABA]V[NMeL]G[NMeF][NMeF]T[NMeA]D[NMeF][NMeF]A-Piperidide; lactam N-9)
microsomal CLint at 1 uM ([1]; human, pH 7.4, CL NADPH(+)): 185 µL/min/mg
Papp at 18 hours, 50 µM ([2]; pH 6.5): 24 ×10⁻⁶ cm/s

CNC(=O)CC[C@@H]1NC(=O)[C@H](CC(C)C)N(C)C(=O)[C@H](C)N(C)C(=O)[C@@H](C(C)C)NC(=O)C[C@@H](C(=O)N2CCCCC2)NC(=O)[C@H]([C@@H](C)O)NC(=O)[C@H](C)N(C)C(=O)CN(C)C(=O)[C@H](CC(C)C)N(C)C(=O)[C@H](Cc2ccccc2)NC(=O)[C@H](Cc2ccccc2)N(C)C1=O [DP-627] ([dV][NMeA][NMeL]E(NHMe)[NMeF]F[NMeL][Sar][NMeA]TD-Piperidide; lactam N-11)
microsomal CLint at 1 uM [1, 3]: 9 µL/min/mg
Papp at 18 hours, 50 µM [2, 4]: 2.4 ×10⁻⁶ cm/s

CC[C@H](C)[C@@H]1NC(=O)CN(C)C(=O)[C@H]([C@@H](C)O)NC(=O)[C@H](CC(C)C)N(C)C(=O)[C@H](Cc2ccccc2)N(C)C(=O)CCN(C)C(=O)C[C@@H](C(=O)N2CCCCC2)NC(=O)[C@H](CC(C)C)N(C)C(=O)[C@H](CC(C)C)N(C)C1=O [DP-440] ([NMeβAla][NMeF][NMeL]T[Sar]I[NMeL][NMeL]D-Piperidide; lactam N-9)
microsomal CLint at 1 uM [1, 3]: 124 µL/min/mg
Papp at 18 hours, 50 µM [2, 4]: 29 ×10⁻⁶ cm/s

CCCN1CC(=O)N(C)[C@@H](Cc2ccccc2)C(=O)N(C)[C@@H](Cc2ccccc2)C(=O)N(C)[C@@H](CC(C)C)C(=O)N2CCC[C@H]2C(=O)N(C)[C@@H](CC(C)C)C(=O)N[C@@H](C)C(=O)N(C)[C@@H](C(C)C)C(=O)N[C@H](C(=O)N2CCCCC2)CC(=O)N(C)[C@@H](C)C(=O)N[C@@H]([C@@H](C)O)C1=O [DP-541] ([NMeA]T[NPrGly][NMeF][NMeF][NMeL]P[NMeL]A[NMeV]D-Piperidide; lactam N-11)
microsomal CLint at 1 uM ([1]; human, pH 7.4, CL NADPH(+)): 22 µL/min/mg
Papp at 18 hours, 50 µM ([2]; pH 6.5): 23 ×10⁻⁶ cm/s

CC[C@H](C)[C@H](NC(=O)[C@H](C)N(C)C(=O)[C@H](CC(C)C)N(C)C(=O)[C@H](CC(C)C)NC(=O)[C@@H]1CC(=O)N[C@@H](Cc2ccccc2)C(=O)N[C@@H]([C@@H](C)CC)C(=O)N(C)[C@@H](CC(C)C)C(=O)N(C)[C@@H](CC(C)C)C(=O)N[C@@H](Cc2ccccc2)C(=O)N[C@@H]([C@@H](C)O)C(=O)N(C)[C@@H](Cc2cccc(Cl)c2)C(=O)N1)C(=O)N1CCCCC1 [DP-931] (FI[NMeL][NMeL]FT[NMePhe(3-Cl)]DL[NMeL][NMeA]I-Piperidide; lactam N-8)
microsomal CLint at 1 uM [1, 3]: 12 µL/min/mg
Papp at 18 hours, 50 µM [2, 4]: 0.1 ×10⁻⁶ cm/s
